{"source": "patent US11167006B2", "about": "(Shanghai Tianci Life Science Development Co., Ltd., priority 2016, dated 2021)", "key": {"[1]": {"tested_on": "male mice of Kunming strain", "assay": "Analgesic tolerance test (photothermal tail flick)", "type": "in vivo, mouse", "description": "The mice were injected with the drug in the lateral ventricle of the mice for six consecutive days or in the subcutaneous of the mice for eight consecutive days, and their analgesic tolerance were detected by photothermal tail flick method, and the pharmacological activity of the compounds of the present invention in analgesic tolerance was further explored.\nIn male mice of Kunming strain, the drug was injected continuously in the lateral ventricle for six days, once a day, and the effect of continuous injection of drugs on the pain sensation was detected by a photothermal tail flick instrument. The ambient temperature is controlled at 22±1° C., and the experimental animals are free to eat and drink. The test drug was injected into the lateral ventricle of the mouse for 6 consecutive days, 4 μl per injection. The basic tail flick incubation period (3-5 seconds) was measured before the first day of drug injection, and those mice that were too sensitive or dull were discarded. The tail flick incubation period of 5, 10, 15, 20, 30 min after administration on the first and sixth days was recorded in the experiment. To prevent scald on the tail of the mouse, the maximum tail flick incubation period was set as 10 seconds,\nIn addition, we further studied the tolerance of subcutaneous administration of compound 9 and morphine in the photothermal tail flick test. The ambient temperature is controlled at 22±1° C., and the experimental animals are free to eat and drink. First, the basic tail flick incubation period (3-5 seconds) of the mice was measured before administration, and then compound 9 or morphine was administered subcutaneously for eight consecutive days. The tail flick incubation period of 10, 15 and 20 minutes after daily administration were recorded. To prevent scald on the tail of the mouse, the maximum tail flick incubation period was set as 10 seconds.\nThe experimental data is expressed by MPE (maximum possible effect), MPE (%)=100×[(pain threshold after administration−basal pain threshold)/(10 seconds−basal pain threshold)]. The analgesic tolerance of the drug was compared using the MPE value at the time of maximum analgesic effect of the drug. MPE data was expressed as mean±standard error (Means±S.E.M.). The difference in the analgesic effect of continuous administration in the lateral ventricle of the mice for six days was statistically analyzed by the paired T test, and the difference in the analgesic effect of subcutaneous continuous administration for eight days was analyzed by One-way analysis of variance (one-way ANOVA's Tukey HSD test) for statistics, and ***P<0.001 indicates a significant difference from the analgesic effect of the drug injected on the first day."}, "[2]": {"tested_on": "CFA-induced inflammatory pain in mouse", "assay": "Analgesic tolerance and cross-tolerance in CFA-induced inflammatory pain", "type": "in vivo", "conditions": "mechanical pain, lateral ventricle 6 days or subcutaneous 7 days", "description": "CFA-induced inflammatory pain in mouse was detected by an electronic Von Frey tenderness instrument, and the basal pain threshold of normal mice was Firstly determined. Then […] of CFA solution was injected subcutaneously into the mouse paw. After 4 days, the mechanical pain sensitivity value of the injected paw of the mouse was measured. And then compound 9 or morphine was injected for 6 consecutive days (lateral ventricle) or 7 consecutive days (subcutaneously), and the mice in morphine group were given compound 9 on day 7 (lateral ventricle) or day 8 (subcutaneous). The mechanical pain thresholds at different time points after administration were recorded.\nThe experimental data were expressed as mean± standard error (Means±S.E.M.). Data for differences between groups treated with the same drug were analyzed by one-way ANOVA (Tukey HSD test of one-way ANOVA) for statistics and analysis, *P<0.05. **P<0.005, ***P<0.001 indicates a significant difference between the mechanical pain threshold of the drug-treated group and the pain threshold after the first day of administration."}, "[3]": {"tested_on": "CCI-induced neuralgia in mouse", "assay": "Analgesic tolerance and cross-tolerance in CCI-induced neuralgia", "type": "in vivo", "conditions": "subcutaneous, seven consecutive days", "description": "CCI-induced neuralgia in mouse was detected using a PL-200 thermal tingling instrument and an electronic Von Frey tenderness instrument. The thermal pain threshold of one group of normal mice and the mechanical pain threshold of another group of normal mice were first determined. The mice were then anesthetized with sodium pentobarbital 80 mg/kg mouse body weight) and the mice were fixed in the prone position. The right sciatic nerve was exposed and 3 mild ligation rings were made around the sciatic nerve using a 4-0 chromic catgut, 1 mm intervals. The ligation intensity is preferably a slight tremor in the right hind leg. On the 10th day after surgery, the thermal pain sensitivity value and mechanical pain sensitivity value of the right hind paw of the two groups of mice were determined. Compound 9 or morphine was then administered subcutaneously for seven consecutive days, and compound 9 was given to mice in the morphine group on day 8. The thermal tingling and mechanical pain thresholds at different time points after administration were recorded.\nThe experimental data were expressed as mean±standard error (Means±S.E.M.). Data for differences between groups treated with the same drug were analyzed by one-way ANOVA (Tukey HSD test of one-way ANOVA) for statistics and analysis, *P<0.05. **P<0.01, ***P<0.001 indicates a significant difference between the pain threshold of the drug-treated group and the pain threshold after the First day of administration."}, "[4]": {"tested_on": "gastrointestinal movement of male mice of Kunming strain", "assay": "Gastrointestinal movement in vivo (activated carbon suspension)", "design": "species or system mouse", "conditions": "10 mg/kg (compound 9 subcutaneous; morphine positive control)", "description": "Male mice of Kunming strain, weighing 26±2 g. The commonly used toner detection method was used in the detection of astrointestinal movement in vivo. The specific experimental procedure was: before the gastrointestinal movement experiment, the mice were fasted for 16 hours (free drinking during fasting), then the drug was injected through spinal cord or subcutaneously, and after 15 minutes, the activated carbon suspension prepared in advance (a physiological saline suspension containing 5% of activated carbon and 10% gum arabic) was orally perfused into the stomach in a volume of 0.1 ml per 10 g of body weight. After 30 minutes from the perfusion of activated carbon suspension, the animals were sacrificed by cervical dislocation, and then the small intestine of the animal from the pylorus to the cecum was carefully taken out. The total lengths of the small intestine from the pylorus to the cecum and the furthest distance from which the activated carbon suspension moves were measured.\nGastrointestinal movement test results were evaluated by a percentage of gastrointestinal movement, and the percentage of gastrointestinal movement per mouse was calculated by dividing the moving distance of the activated carbon suspension by the total length of the small intestine. The relevant data were expressed as mean of the percentage of gastrointestinal movement±standard error (Means±S.E.M.), the data for differences between groups treated with different drug concentrations were analyzed by one-way ANOVA (Dunnett test in one-way ANOVA) for statistics and analysis, ***P<0.001 represented that there was a significant difference between the percentage of gastrointestinal movement of the drug-treated group and that of the saline group."}, "[5]": {"tested_on": "movement activity of mice", "assay": "Movement activity, open field experiment", "type": "in vivo, mouse", "conditions": "subcutaneous 10 mg/kg", "description": "The movement activity of the mice was tested by open field experiments. The experimental device is consisted of a 50×50×50 cm topless black plexiglass box and a movement monitoring system. The experiment was carried out in a soundproof environment with an indoor temperature being controlled at 22±1° C. After the experiment was started, the mice were first recorded for free movement within 30 minutes, and then compound 9 or morphine was administered subcutaneously, the movement of the mice was detected for another 150 minutes. Before the experiment for each mouse was started, the whole box was wiped with alcohol as a whole to exclude the residual odor of the previous mouse from affecting the accuracy of the data.\nThe experimental data were expressed as mean±standard error (Means±S.E.M.), and the data for differences between groups treated with different drugs were analyzed by one-way ANOVA (Bonferroni test in one-way ANOVA) for statistics and analysis, ***P<0.001 represents that there was a significant difference between the movement activity of the drug-treated group and that of the saline group."}, "mice [6]": {"tested_on": "mice", "assay": "Conditional position preference test (CPP)", "type": "in vivo, mouse", "conditions": "subcutaneous 10 mg/kg", "description": "The conditional position preference experimental device is a closed device (45×20×20 cm) assembled from transparent plexiglass plates. Two 20×20×20 cm conditional preference boxes are located at both ends of the device, with a small compartment 5×20×20 cm having a passage (5×5×5 cm) connected in the middle. On the first day of the experiment, the passage was kept open, the mice was placed into the device for 15 min, and the mice that had been explored for more than 9 min in any of the preference boxes were excluded. […] On day 5, the passage was kept opened again to ensure that the mice were free to enter into the two preference boxes, and the time that the mice stayed in the drug matching preference box within 15 minutes of the total time was recorded.\nThe experimental relevant data were expressed as mean±standard error (Means±S.E.M.), and the conditional position preference score represents the time spent on the drug matching preference box on day 5 of each mouse minus the time on the first day in this preference box. Differences between groups treated with different drugs in CPP trials were analyzed by one-way ANOVA (Tukey HSD test in one-way ANOVA) for data statistics and analysis."}, "mice [7]": {"tested_on": "mice", "assay": "Naloxone withdrawal test", "type": "in vivo, mouse", "conditions": "s.c. at 8 hours intervals 20, 40, 60, 80, 100, 100, 100 mg/kg; naloxone 1 mg/kg; 30 minutes"}, "[8]": {"tested_on": "acute pain caused by photothermal therapy in male mice of Kunming strain", "conditions": "mouse tail flick, lateral ventricle; from ZL201210098832.2; cited from earlier work"}, "[9]": {"tested_on": "formalin-induced pain mice", "conditions": "lateral ventricle; Br J Pharmacol 2016; cited from earlier work"}, "[10]": {"conditions": "lateral ventricle injection, once a day, morphine 4 nmol"}}, "note": "Square brackets hold non-standard residues; d marks the D form. Ends that are not written are not given here.", "data": [{"molecule": "CN1CC[C@]23c4c5ccc(O)c4O[C@H]2[C@@H](O)C=C[C@H]3[C@H]1C5", "note": "[morphine, reference compound]", "values": [{"measurement": "analgesic tolerance", "setting": "[1]; eight consecutive days subcutaneous, 10 mg/kg", "value": "significantly reduced from day 4"}, {"measurement": "analgesic effect (MPE) after six days of continuous injection", "setting": "[1]; [10]", "value": 36.15, "unit": "%"}, {"measurement": "analgesic effect (MPE) on the first day", "setting": "[1]; [10]", "value": 86.97, "unit": "%"}, {"measurement": "analgesic tolerance", "setting": "[1]; six consecutive days lateral ventricle injection, compounds at 3 times ED50, morphine 4 nmol", "value": "can significantly cause analgesia tolerance"}, {"measurement": "analgesic tolerance on continuous injection", "setting": "[2]", "value": "significantly reduced from the fourth day"}, {"measurement": "analgesic tolerance on continuous injection, mechanical pain sensitivity", "setting": "[3]", "value": "from the fourth day"}, {"measurement": "analgesic tolerance on continuous injection, thermal sensitivity pain", "setting": "[3]", "value": "from the third day"}, {"measurement": "percentage of gastrointestinal movement", "setting": "[4]", "value": 16.92, "unit": "%"}, {"measurement": "total distance of movement", "setting": "[5]", "value": 439.73, "unit": "m"}, {"measurement": "conditional positional preference", "setting": "mice [6]", "value": "produced significant conditional positional preference"}, {"measurement": "average number of jumps after naloxone withdrawal", "setting": "mice [7]", "value": 47}]}, {"molecule": "Tyr-D-Ala-Gly-Phe-Gln-Pro-Gln-Arg-Phe-NH2 (Y[dA]GFQPQRF-NH2) [BN-9]", "values": [{"measurement": "analgesic ED50 value of BN-9", "setting": "[8]", "value": 0.39, "unit": "nmol"}, {"measurement": "analgesic ED50 value of BN-9, formalin first phase pain", "setting": "[9]", "value": 0.12, "unit": "nmol"}, {"measurement": "analgesic ED50 value of BN-9, formalin second phase pain", "setting": "[9]", "value": 1.14, "unit": "nmol"}]}]}
